In brackets after ≈: the same amount, converted by molar mass.
Tests used:
Prp8 intein [1] = target: T1, Prp8 intein (Cryptococcus gattii, UniProt E6R027); assay: Split GFP-Prp8i intein splicing assay; assay type: biochemical; conditions: split GFP-Prp8 intein splicing
Method: Cloning, expression and purfication—The split GFP-Prp8i was constructed using a mega-PCR mutagenesis approach. […] After digestion with Dpn I restriction enzyme, the PCR product was transformed into DH5α Escherichia coli. Clones were verified by plasmid DNA sequencing. The expression, refolding and purification of the GFP-Prp8i fusion protein were carried out as described previously.
[…] Then 100 μl 2×TCEP was added to a final concentration of 20 μM. The reactions were incubated at 25° C. overnight. […] Two readings were taken, one prior to addition of TCEP (I0) and one after incubation overnight with TCEP (If). Fluorescence/luminescence differences (ΔFluorescence or ΔLuminescence) were defined as If−I0 for each well. […] DMF control served as 100% splicing activity.
(§1) Split GFP-Prp8 and CJGFP-Prp8 intein splicing assays—Using black and clear bottom 96-well plates, the DPNB-treated, -refolded and -concentrated GFP-Prp8 or CfGFP-Prp8 fusion protein (0.5 μM) was incubated with compounds or Dimethylsulfoxide (DMSO) solvent control for 30 min at 25° C. in a 100 μl intein splicing buffer (20 mM Bis-tris propane, 0.5 M NaCl, 0.5 M arginine, 1 mM EDTA, and 0.05% CHAPS). Then 100 μl 2×TCEP was added to a final concentration of 20 μM. The reactions were incubated at 25° C. overnight. […] Two readings were taken, one prior to addition of TCEP (I0) and one after incubation overnight with TCEP (If). Fluorescence/luminescence differences (ΔFluorescence or ΔLuminescence) were defined as If−I0 for each well. […] DMSO control served as 100% splicing activity.

Prp8 intein [2] = target: T1, Prp8 intein; assay: Split Renilla luciferase RLuc-Prp8 intein splicing assay; assay type: biochemical; conditions: split Renilla luciferase RLuc-Prp8 intein splicing
Method: Split luciferase Prp8 intein splicing assay—The split RLuc-Prp8 fusion protein was carried out and monitored using a Veritas luminometer, as described previously.
(§2) Split luciferase RLuc-Prp8 and NnLuc-Prp8 intein splicing assays—The split RLuc-Prp8 intein splicing assay was carried out and monitored using a Veritas luminometer, as described previously. […] Microbes. Infect. […] For NnLuc-Prp8 intein splicing assay, the NnLuc-prp8 is diluted in assay buffer (50 mM Tris, 0.1% BSA, 1 mM EDTA, pH 7.4) and 50 ul is added to each well in 96 well black plates. Test molecules or the solvent was added and incubated for 30 to 60 min. A splicing inducer TCEP (50 ul, 100 μM) is added and incubated for 24 h. Luciferase substrate (Furimazine, 25 ul 1:10,000 diluted) is added and luminescence is read using a luminescence reader. IC50 is calculated using Graphpad prism.

in vitro = assay type: cell-based, human; conditions: human, CC50 A549
Method: Cytotoxicity—Cytotoxicity assays were carried out using human lung carcinoma cell line A549, as described (Chen et al., “Selective Inhibition of the West Nile Virus Methyltransferase by Nucleoside Analogs,” Antiviral Research 97(3):232-239 (2013), which is hereby incorporated by reference in its entirety). Briefly, the A549 cells (5×10^3) were incubated with/without compounds in a 96-well plate at 37° C. for 48 h. Cell viability was determined using the MTT assay (ATCC) as was described previously (Chen et al., “Selective Inhibition of the West Nile Virus Methyltransferase by Nucleoside Analogs,” Antiviral Research 97(3):232-239 (2013) and Brecher et al., “Identification and Characterization of Novel Broad-Spectrum Inhibitors of the Flavivirus Methyltransferase,” ACS Infectious Diseases 1(8):340-349 (2015), both of which are hereby incorporated by reference in their entirety). N=3.
Cytotoxicity—Cytotoxicity assays were carried out using human lung carcinoma cell line A549, as described. Chen et al., “Selective Inhibition of the West Nile Virus Methyltransferase by Nucleoside Analogs,” Antiviral Res. 97:232-9 (2013), which is hereby incorporated by reference in its entirety. Briefly, the A549 cells (5×10^3) were incubated with/without compounds in a 96-well plate at 37° C. for 48 h. Cell viability was determined using the MTT assay (ATCC) as was described previously (Chen et al., “Selective Inhibition of the West Nile Virus Methyltransferase by Nucleoside Analogs,” Antiviral Research 97(3):232-239 (2013) and Brecher et al., “Identification and Characterization of Novel Broad-Spectrum Inhibitors of the Flavivirus Methyltransferase,” ACS Infectious Diseases 1(8):340-349 (2015), both of which are hereby incorporated by reference in their entirety). N=3.

C. neoformans H99 strain = assay: Fungal susceptibility test, broth microdilution MIC; assay type: cell-based, Cryptococcus neoformans; conditions: Cryptococcus neoformans, H99STRAIN; C. neoformans H99, microbroth dilution; read-out: MIC H99
Method: Fungal susceptibility test—The fungal susceptibility test was carried out with a compound concentration series as described. […] The broth microdilution method was used to determine the compound MIC values against C. neoformans.
Fungal susceptibility test—The fungal susceptibility test was carried out with a compound concentration series as described. […] Microbes. Infect. […] The broth microdilution method was used to determine the compound MIC values against C. neoformans.

Prp8 intein [3] = target: T1, Prp8 intein; assay: Split Cys-free (Cf) GFP-Prp8 intein splicing assay; assay type: biochemical; conditions: read-out: IC50 CfGFP-Prp8 (converted)
Method: (§3) The constructs for Cys-free (Cf) GFP-Prp8 and Cys-free nanoluciferase NnLuc-Prp8 were codon-optimized, synthesized, and cloned into the pET28a vector using the NcoI and XhoI sites by Gene Universal (Gene Universal, Newark Del.). […] The expression, refolding and purification of the CfGFP-Prp8 and NnLuc-Prp8 fusion proteins were carried out as described previously. […] Microbes. Infect.
as §1

Prp8 intein [4] = target: T1, Prp8 intein; assay: Split nanoluciferase NnLuc-Prp8 intein splicing assay; assay type: biochemical
Method: as §3, §2

T1 sequence (E6R027 entry or part of it): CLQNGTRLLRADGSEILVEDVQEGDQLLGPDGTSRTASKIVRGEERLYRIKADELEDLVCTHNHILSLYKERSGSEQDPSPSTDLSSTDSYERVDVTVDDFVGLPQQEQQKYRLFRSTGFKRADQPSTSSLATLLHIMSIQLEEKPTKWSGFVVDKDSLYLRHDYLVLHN

SMILES | IC50 (Prp8 intein [1]) | IC50 (Prp8 intein [2]) | CC50 at 48 h (in vitro) | MIC (C. neoformans H99 strain) | IC50 (Prp8 intein [3]) | IC50 (Prp8 intein [4])
O=C(Nc1ccc(F)cc1F)c1ncsc1S(=O)(=O)c1ccc(Cl)cc1 [JMX0515, 5-((4-Chlorophenyl)sulfonyl)-N-(2,4-difluorophenyl)thiazole-4-carboxamide] | > 50 µM | 37.7 µM | 210 µM | > 100 µM |  | 
O=C(Nc1ccc(F)cc1)c1ncsc1S(=O)(=O)c1ccc(Cl)cc1 [JMX0525, 5-((4-Chlorophenyl)sulfonyl)-N-(4-fluorophenyl)thiazole-4-carboxamide] | > 50 µM | 6.4 µM | 309 µM | > 100 µM |  | 
O=C(NCc1ccc(F)cc1)c1nnsc1Sc1ccc(Cl)cc1 [JMX0573, 5-((4-Chlorophenyl)thio)-N-(4-fluorobenzyl)-1,2,3-thiadiazole-4-carboxamide] | > 50 µM | 5.5 µM | 282 µM | > 100 µM |  | 
O=C(Nc1ccc(C(F)(F)F)cc1)c1ncsc1S(=O)(=O)c1ccc(Cl)cc1 [JMX0521, 5-((4-Chlorophenyl)sulfonyl)-N-(4-(trifluoromethyl)phenyl)thiazole-4-carboxamide] | 50 µM | 29.3 µM | 54.1 µM | > 100 µM |  | 
O=C(Nc1ccc(Cl)cc1)c1ncsc1S(=O)(=O)c1ccc(Cl)cc1 [JMX0518, N-(4-Chlorophenyl)-5-((4-chlorophenyl)sulfonyl)thiazole-4-carboxamide] | 28 µM | 6.5 µM | 57.3 µM | 50 µM (≈ 20.7 µg/mL) |  | 
O=C(Nc1ccccc1F)c1ncsc1S(=O)(=O)c1ccc(Cl)cc1 [JMX0516, 5-((4-Chlorophenyl)sulfonyl)-N-(2-fluorophenyl)thiazole-4-carboxamide] | 49.3 µM | 13.3 µM | 144 µM | > 100 µM |  | 
O=C(Nc1ccc(Br)cc1)c1nnsc1S(=O)(=O)c1ccc(Cl)cc1 [JMX1034, N-(4-Bromophenyl)-5-((4-chlorophenyl)sulfonyl)-1,2,3-thiadiazole-4-carboxamide] |  |  | 84.8 µM | > 50 µM | 33.1 µM | 15.4 µM
O=C(Nc1c(F)cc(F)cc1F)c1nnsc1S(=O)(=O)c1ccc(Cl)cc1 [JMX1045, 5-((4-Chlorophenyl)sulfonyl)-N-(2,4,6-trifluorophenyl)-1,2,3-thiadiazole-4-carboxamide] |  |  | 47.9 µM | > 50 µM | 34.3 µM | 15.9 µM
Cc1ccc(NC(=O)c2nnsc2[S+]([O-])c2ccc(Cl)cc2)cc1 (stereo not shown) [JMX1033-2] |  |  | 74.6 µM | > 50 µM | 47.3 µM | 3.8 µM
O=C(Nc1ccc(F)c(Cl)c1)c1nnsc1S(=O)(=O)c1ccc(Cl)cc1 [JMX1037, N-(3-Chloro-4-fluorophenyl)-5-((4-chlorophenyl)sulfonyl)-1,2,3-thiadiazole-4-carboxamide] |  |  | 63.2 µM | 25 µM (≈ 10.8 µg/mL) | 31.4 µM | 14.1 µM
O=C(Nc1cc(F)cc(F)c1)c1nnsc1S(=O)(=O)c1ccc(Cl)cc1 [JMX1038, 5-((4-Chlorophenyl)sulfonyl)-N-(3,5-difluorophenyl)-1,2,3-thiadiazole-4-carboxamide] |  |  | 54.2 µM | > 50 µM | 37.1 µM | 37.4 µM
O=C(Nc1cc(F)cc(C(F)(F)F)c1)c1nnsc1S(=O)(=O)c1ccc(Cl)cc1 [JMX1040, 5-((4-chlorophenyl)sulfonyl)-N-(3-fluoro-5-(trifluoromethyl)phenyl)-1,2,3-thiadiazole-4-carboxamide] |  |  | 56.3 µM | 3.12 µM (≈ 1.45 µg/mL) | 32.8 µM | 20.6 µM
O=C(Nc1ccc(F)cc1)c1nnsc1S(=O)(=O)c1ccc(Cl)cc1Cl [JMX1059, 5-((2,4-Dichlorophenyl)sulfonyl)-N-(4-fluorophenyl)-1,2,3-thiadiazole-4-carboxamide] |  |  | 68.1 µM | 12.5 µM (≈ 5.4 µg/mL) | 31.9 µM | 20.9 µM

Source: patent publication US20230233533A1, “COMPOSITIONS, METHODS OF TREATING AND PREVENTING FUNGAL INFECTIONS, AND METHODS OF INHIBITING PRP8 INTEIN EXPRESSION” (Health Research, Inc., priority 2020, published 2023)
